The assay addresses Vascular endothelial growth factor receptor 2 (Homo sapiens, UniProt P35968). In words: Kinase Inhibition Assay.

Vascular endothelial growth factor receptor 2, sequence (P35968 whole entry): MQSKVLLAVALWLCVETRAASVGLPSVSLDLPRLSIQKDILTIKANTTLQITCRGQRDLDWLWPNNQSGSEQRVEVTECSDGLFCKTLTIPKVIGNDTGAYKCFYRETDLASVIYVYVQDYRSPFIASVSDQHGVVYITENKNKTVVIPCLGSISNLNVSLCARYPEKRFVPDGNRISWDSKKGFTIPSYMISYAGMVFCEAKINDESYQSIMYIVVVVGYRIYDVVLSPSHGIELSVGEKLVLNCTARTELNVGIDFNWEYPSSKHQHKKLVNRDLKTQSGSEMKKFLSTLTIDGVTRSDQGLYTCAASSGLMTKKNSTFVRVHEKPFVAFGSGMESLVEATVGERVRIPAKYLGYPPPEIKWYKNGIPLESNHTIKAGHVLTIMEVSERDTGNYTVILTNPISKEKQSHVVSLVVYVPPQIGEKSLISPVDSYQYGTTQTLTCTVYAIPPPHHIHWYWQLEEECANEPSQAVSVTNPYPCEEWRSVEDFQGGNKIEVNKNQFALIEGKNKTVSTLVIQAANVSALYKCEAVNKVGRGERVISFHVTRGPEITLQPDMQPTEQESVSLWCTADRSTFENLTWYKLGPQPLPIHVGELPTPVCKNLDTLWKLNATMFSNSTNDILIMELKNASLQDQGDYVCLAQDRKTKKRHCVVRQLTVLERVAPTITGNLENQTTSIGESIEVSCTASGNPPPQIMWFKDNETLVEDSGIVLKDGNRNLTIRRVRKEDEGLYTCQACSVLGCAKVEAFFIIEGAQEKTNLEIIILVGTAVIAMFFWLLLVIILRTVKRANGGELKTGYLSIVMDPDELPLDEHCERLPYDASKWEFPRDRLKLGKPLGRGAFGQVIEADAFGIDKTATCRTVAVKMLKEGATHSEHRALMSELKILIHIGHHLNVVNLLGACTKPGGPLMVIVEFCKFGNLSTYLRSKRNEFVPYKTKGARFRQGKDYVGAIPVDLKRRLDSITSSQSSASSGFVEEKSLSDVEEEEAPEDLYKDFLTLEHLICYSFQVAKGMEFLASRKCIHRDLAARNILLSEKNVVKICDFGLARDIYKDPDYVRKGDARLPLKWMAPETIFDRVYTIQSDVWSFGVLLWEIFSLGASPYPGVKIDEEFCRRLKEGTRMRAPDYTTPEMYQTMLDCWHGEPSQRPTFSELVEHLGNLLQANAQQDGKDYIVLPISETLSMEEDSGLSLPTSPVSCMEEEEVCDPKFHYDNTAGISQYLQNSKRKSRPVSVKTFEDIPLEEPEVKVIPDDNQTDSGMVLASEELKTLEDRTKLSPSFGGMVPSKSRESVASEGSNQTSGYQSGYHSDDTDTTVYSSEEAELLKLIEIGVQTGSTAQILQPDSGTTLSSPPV

As for `NC[C@@H]1O[C@H](O[C@H]2[C@@H](O)[C@H](O[C@@H]3[C@@H](O)[C@H](N)C[C@H](N)[C@H]3O[C@H]3O[C@H](CN)[C@@H](O)[C@H](O)[C@H]3N)O[C@@H]2CO)[C@H](N)[C@@H](O)[C@@H]1O` [KDR Kinase Inhibitor, 3], the IC50 came out at 0.018 µM.

The IC50 is the concentration that inhibits the measured activity by half.

For the origin of these results see BindingDB's records for doi:10.1111/j.1747-0285.2007.00488.x (Shanghai Jiao Tong University, 2007).
